Assays:
[1] = test system: wheat powdery mildew; assay: in vivo test against wheat powdery mildew; set-up: species or system "MV-4" wheat (host plant); details: identical test conditions
Protocol: In vivo tests are carried out against cereals powdery mildew.
In vivo activity is tested against wheat powdery mildew in a phytobox of the Conviron type, at 20° C., a relative humidity of 90% and a light intensity of 9000 lux. As host plant the elite propagating seed grain material of officially qualified "MV-4" wheat species is used. Wheat plants are cultivated in 6 days' periods, in cultivating dishes (diameter 11 cm) containing a 1:1 mixture of sand and perlite. Each dish contains 160 plants; at the beginning of the treatment the plants were 5-6 cm high. High dispersity grade aqueous suspensions or acetonic solutions of the test compound are prepared and 8 ml of each suspension or solution, respectively, are applied onto the plants by means of a spraying apparatus operated by gaseous nitrogen. Inoculation is carried out 24 days after the fungicidal treatment. The test units are placed in three replicates and in random block arrangement in the phytotron. The rate of infectedness is determined on the 8th day after inoculation. Numerical evaluation is accomplished on the basis of the method described by Hinfner and Papp by observing separately 50-60 plants.
The results are expressed as ED50 and ED90 values of the test compounds being calculated from the co-relation of effect and concentration by means of mathematical-biometrical methods. […]

[2] = test system: bean rust (Uromyces apperdiculatus); assay: in vivo test on "pinto" bean against bean rust; set-up: species or system "pinto" bean (host plant); details: spray at a concentration of 500 ppm; symptoms 7-8 days after infection
Protocol: A further test is carried out on "pinto" bean species against bean rust (Uromyces apperdiculatus). Into each cultivating dish three seeds are sown in a 1:1:0.035 mixture of sand, perlite and super compost. Two-leave staged bean plants subjected to 7-9 days' glass house pre-cultivation are treated with the test compound and the treated plants are inoculated. The concentration of the spore suspension amounts to 0.1 g/10 ml and 2.5 ml of spore suspension are used for each cultivating dish. After inoculation the plants are incubated at 20° C. under a relative moisture content of 100% for 48 hours. The symptoms manifest themselves 7-8 days after infection. Three replicates are used; untreated control treatment is also carried out and the commercial product "Dithane M 45" serves as reference.

C/C=C/C(=O)Oc1c(C(C)CCCCCC)cc([N+](=O)[O-])cc1[N+](=O)[O-] (stereo not shown) [6-(1-methyl-heptyl-2,4-dinitro-phenyl-crotonate)]
activity relative to the most efficient novel compounds (products of Examples 7 and 8) [1]: lower activity

CCCCNC(=O)n1c(NC(=O)OC)nc2ccccc21 [Reference compound, methyl-1-(n-butylcarbamoyl)-2-benzimidazole-carbamate]
activity relative to the most efficient novel compounds (products of Examples 7 and 8) [1]: lower activity

CNC(=O)ON=C1C(=O)c2ccccc2-c2ccccc21 [Example 8, 9,10-Phenanthrene-dione-9-(methylaminocarbonyl)-oxime]
inhibition of bean rust infection [2]: 100%

CCCCNC(=O)ON=C1C(=O)c2ccccc2-c2ccccc21 [Example 7, 9,10-phenanthrene-dione-9-(n-butyl-aminocarbonyl)-oxime]
inhibition of bean rust infection [2]: 100%

— US4746678A, “Phenanthrene derivatives” (EGIS Gyoryszergyar, priority 1985, dated 1988)
